The values below come from patent publication US20250313526A1, “PYRETHROID COMPOUND CONTAINING DOUBLE BONDS AND CYANO GROUPS, SYNTHESIS METHOD THEREFOR, AND APPLICATION THEREOF” (Jiangsu Yangnong Chemical Co., Ltd., priority 2022, published 2025).

Common to all, as to type: in vivo
The test system of data set [1] is female mosquitoes of Culex pipiens pallens. Kind of data set: Mosquito-repellent incense mosquito-killing efficacy, sealed drum apparatus (GB/T13917.4-2009). The conditions noted are these: for KT50: mosquito-repellent incense W1-W5, active ingredient 0.04 w/w %, incense burnt 1 min, 20 female Culex pipiens pallens. The method, then:
99.96 parts by weight of a mixture consisting of corn starch, carbon powder and wood powder (1:5:4) were added with 120 parts by mass of water, kneaded into shape, and then dried to form a mosquito-repellent incense substrate (with a diameter of 12.0 cm, a thickness of 4 mm, and a pair weighing 40 g).
On the other hand, a 0.4 w/v % solution of compound 1 in kerosene was prepared. The set of incense substrate was uniformly spray-coated with 4 ml of the above solution using a microsyringe, and then left to dry at room temperature for 3 h to obtain a set of mosquito-repellent incense W1 containing 0.04 w/w % compound 1.
Similarly, compounds 2-3 of the present invention shown in Table 1, as well as Momfluorothrin and tetramethylfluthrin were prepared respectively to obtain corresponding mosquito-repellent incenses W2 to W5.
The mosquito-repellent incenses W2 to W5 were measured and compared in terms of mosquito-killing efficacy in accordance with GB/T13917.4-2009. […] The specific process was as follows: sucking 20 test mosquitoes with a mosquito suction tube, placing them into a sealed drum apparatus, taking a section of mosquito-repellent incense to be tested and placing it on an incense holder, lighting the incense and starting timing, removing the mosquito-repellent incense after 1 min, and recording the number of test mosquitos knocked down at regular intervals.

The subject of data set [2] is Mosquitoes. Kind of data set: Insecticidal aerosol efficacy, sealed drum apparatus (GB/T13917.2-2009), mosquitoes. The conditions noted are these: for Mortality rate: aerosol 0.3% active ingredient, 24 h; for Mortality rate / KT50: 1 g sprayed, mosquitoes; for KT50: aerosol containing 0.3% active ingredient. As for the experimental part:
(§1) 0.3 parts by weight of compound 1 with 59.7 parts by weight of kerosene were heated and evenly mixed to prepare an insecticide. The resulting preparation was placed in an aerosol can equipped with a valve, through which 40.0 parts by weight of propane and butane were injected underpressure, to obtain an insecticidal aerosol containing 0.3% compound 1.
(§2) The insecticidal aerosol was tested for efficacy on mosquitoes, flies, and German cockroaches in accordance with GB/T13917.2-2009, using a sealed drum apparatus. The specific process was as follows: placing the test insects into a tank, and after the test insects resumed normal activities, quantitatively spraying 1 g of the agent from the insecticidal aerosol can, pulling out the baffle after 1 min to make the test insects in contact with the agent, immediately starting timing and recording the number of the test insects knocked down at regular intervals, transferring all the test insects to a clean insect rearing cage after 20 min, and checking the number of dead insects after 24 h, wherein the German cockroaches were tested for 72-h mortality rate.
(§3) The aerosols of compounds 1-3, Momflurothrin and tetramethylfluthrin were prepared according to Test Example 2, and were tested for efficacy.

The test system of data set [3] is German cockroaches. Briefly: Insecticidal aerosol efficacy, sealed drum apparatus (GB/T13917.2-2009), German cockroaches. The conditions noted are these: 1 g sprayed; for Mortality rate: aerosol 0.3% active ingredient, 72 h; for KT50: aerosol containing 0.3% active ingredient. As for the experimental part: as §1, §2, §3
The test system of data set [4] is Flies. Kind of data set: Insecticidal aerosol efficacy, sealed drum apparatus (GB/T13917.2-2009), flies. The conditions noted are these: 1 g sprayed; for Mortality rate: aerosol 0.3% active ingredient, 24 h; for KT50: aerosol containing 0.3% active ingredient. The method, then:
as §1, §2, §3

Data set [5] can be described thus: Rat acute dermal toxicity. The conditions noted are these: in vivo, topical or ocular, read-out: rat acute dermal toxicity median lethal dose (LD50).
The test system of data set [6] is rat. Kind of data set: Rat acute dermal toxicity.
Data set [7] in a line: Rat acute oral toxicity. The conditions noted are these: in vivo, read-out: rat acute oral toxicity median lethal dose (LD50).
The test system of data set [8] is rat. Briefly: Rat acute oral toxicity.

Take `CC1(C)C(/C=C\C#N)C1C(=O)OCc1cc(F)cc(F)c1F` (centres unmarked) [Compound 1, 2,3,5-trifluorobenzyl (Z)-3-(2-cyanovinyl)-2,2-dimethylcyclopropanecarboxylate]: the KT50 in data set [1] is recorded as 2.45 min; in data set [2] it was 1.33 min; in data set [3], 4.05 min; in data set [4], 2.32 min. Further, the Mortality rate amounted to 100% in data set [2], 95% in data set [3] and 100% in data set [4].

With `CC1(C)C(/C=C\C#N)C1C(=O)OCc1c(F)ccc(F)c1F` (centres unmarked) [Compound 2, 2,3,6-trifluorobenzyl (Z)-3-(2-cyanovinyl)-2,2-dimethylcyclopropanecarboxylate], the KT50 was 5.42 min in data set [1], 3.58 min in data set [2], 6.26 min in data set [3] and 4.65 min in data set [4]. Besides, the Mortality rate in data set [2] is 100%; in data set [3], 90%; in data set [4], 100%.

In the case of `CC1(C)C(/C=C\C#N)C1C(=O)OCc1c(F)c(F)cc(F)c1F` (centres unmarked) [Compound 3, 2,3,5,6-tetrafluorobenzyl (Z)-3(2-cyanovinyl)-2,2-dimethylcyclopropanecarboxylate], the KT50 came out at 4.65 min in data set [1], 2.45 min in data set [2], 5.52 min in data set [3] and 3.45 min in data set [4]. In addition, the values for the Mortality rate in data set [2], in data set [3] and in data set [4] were 100%, 95% and 100%, respectively. Also, the LD50 in data set [5] and in data set [7] was more than 5000 mg/kg each time. In data set [6], the “acute dermal toxicity classification” value is reported as “slightly toxic”. The “acute oral toxicity classification” value in data set [8] is “slightly toxic”.

Consider `COCc1c(F)c(F)c(COC(=O)C2C(/C=C(/C)C#N)C2(C)C)c(F)c1F` (centres unmarked) [Momfluorothrin, reference compound], for which the “activity as mosquito-repellent incense” value in data set [1] (as mosquito-repellent incense) is “relatively poor activity”. Further, the KT50 is given as 27.87 min in data set [1], 12.35 min in data set [2], 17.56 min in data set [3] and 15.28 min in data set [4]. The Mortality rate in data set [2] is given as 100%; in data set [3], 60%; in data set [4] it was 70%. Moreover, the “knockdown activity against mosquitoes” value in data set [2] (as an aerosol in a cylindrical container) is listed as “good knockdown activity”.

As to `COCc1c(F)c(F)c(COC(=O)C2C(C)(C)C2(C)C)c(F)c1F` [tetramethylfluthrin, reference compound], the KT50 in data set [1] amounted to 9.23 min; in data set [2], 6.46 min; in data set [3] it was 9.12 min; in data set [4], 8.56 min. Moreover, the Mortality rate in data set [2] is 100%; in data set [3], 65%; in data set [4], 80%.
